Experimental data: patent US10590123B2, “Pesticidally active amide heterocyclic derivatives with sulphur containing substituents” (SYNGENTA PARTICIPATIONS AG, priority 2014, dated 2020)

Tests used:
[1] = test system: Spodoptera littoralis (Egyptian Cotton Leaf Worm); experiment: Example B1: Activity against Spodoptera littoralis, sprayed cotton leaf discs; type: in vivo; conditions: foliar, 72 h, application rate 200 ppm, L1 larvae, 3 days after infestation, read-out: control in at least one of the three categories (mortality, anti-feedancy or growth inhibition)
Protocol: Example B1: Activity Against Spodoptera littoralis (Egyptian Cotton Leaf Worm)
Cotton leaf discs were placed on agar in 24-well microtiter plates and sprayed with aqueous test solutions prepared from 10′000 ppm DMSO stock solutions. After drying the leaf discs were infested with five L1 larvae. The samples were assessed for mortality, anti-feedant effect, and growth inhibition in comparison to untreated samples 3 days after infestation. Control of Spodoptera littoralis by a test sample is when at least one of mortality, anti-feedant effect, and growth inhibition is higher than the untreated sample.

[2] = test system: Spodoptera littoralis (Egyptian Cotton Leaf Worm); experiment: Example B2: Activity against Spodoptera littoralis, systemic via lettuce roots in agar; type: in vivo; conditions: 144 h, application rate 12.5 ppm, 6 days after infestation, read-out: control in at least one of the three categories (mortality, anti-feedancy or growth inhibition)
Description: Example B2: Activity Against Spodoptera littoralis (Egyptian Cotton Leaf Worm)
Test compounds were applied by pipette from 10′000 ppm DMSO stock solutions into 24-well plates and mixed with agar. Lettuce seeds were placed on the agar and the multi well plate was closed by another plate which contains also agar. After 7 days the roots have absorbed the compound and the lettuce has grown into the lid plate. The lettuce leafs were now cut off into the lid plate. Spodoptera eggs were pipetted through a plastic stencil on a humid gel blotting paper and the plate closed with it.
The samples were assessed for mortality, anti-feedant effect and growth inhibition in comparison to untreated samples 6 days after infestation.

[3] = test system: Plutella xylostella (Diamond Back Moth); experiment: Example B3: Activity against Plutella xylostella, artificial diet; type: in vivo; conditions: 120 h, application rate 200 ppm, L2 larvae, 5 days after infestation, read-out: effect in at least one of the two categories (mortality or growth inhibition)
Protocol: Example B3: Activity Against Plutella xylostella (Diamond Back Moth)
(§1) 24-well microtiter plates with artificial diet were treated with aqueous test solutions prepared from 10′000 ppm DMSO stock solutions by pipetting. After drying, the plates were infested with L2 larvae (10 to 15 per well). The samples were assessed for mortality and growth inhibition in comparison to untreated samples 5 days after infestation.

[4] = test system: Diabrotica Balteata (Corn Root Worm); experiment: Example B4: Activity against Diabrotica balteata, sprayed maize sprouts; type: in vivo; conditions: 96 h, application rate 200 ppm, L2 larvae, 4 days after infestation, read-out: effect in at least one of the two categories (mortality or growth inhibition)
Protocol: Example B4: Activity Against Diabrotica Balteata (Corn Root Worm)
as §1, with “Maize sprouts, placed on an agar layer in 24-well” for “24-well”, “plates” for “plates with artificial diet”, “spraying.” for “pipetting.”, “(6” for “(10”, “10” for “15”, “4” for “5”

[5] = test system: Frankliniella occidentalis (Western Flower Thrips); experiment: Example B5: Activity against Frankliniella occidentalis, sprayed sunflower leaf discs; type: in vivo; conditions: foliar, 168 h, application rate 200 ppm, population of mixed ages, 7 days after infestation
Protocol: Example B5: Activity Against Frankliniella occidentalis (Western Flower Thrips)
(§2) Sunflower leaf discs were placed on agar in 24-well microtiter plates and sprayed with aqueous test solutions prepared from 10′000 ppm DMSO stock solutions. After drying the leaf discs were infested with a Frankliniella population of mixed ages. The samples were assessed for mortality 7 days after infestation.

[6] = test system: Bemisia tabaci (Cotton White Fly); experiment: Example B6: Activity against Bemisia tabaci, sprayed cotton leaf discs; type: in vivo; conditions: foliar, 144 h, application rate 200 ppm, adult white flies, 6 days after incubation
Protocol: Example B6: Activity Against Bemisia tabaci (Cotton White Fly)
Cotton leaf discs were placed on agar in 24-well microtiter plates and sprayed with aqueous test solutions prepared from 10′000 ppm DMSO stock solutions. After drying the leaf discs were infested with adult white flies. The samples were checked for mortality 6 days after incubation.

[7] = test system: Euschistus heros (Neotropical Brown Stink Bug); experiment: Example B7: Activity against Euschistus heros, sprayed soybean leaf; type: in vivo; conditions: 120 h, application rate 200 ppm, N-2 nymphs, 5 days after infestation
Protocol: Example B7: Activity Against Euschistus heros (Neotropical Brown Stink Bug)
Soybean leaf on agar in 24-well microtiter plates were sprayed with aqueous test solutions prepared from 10′000 ppm DMSO stock solutions. After drying the leaf were infested with N-2 nymphs. The samples were assessed for mortality 5 days after infestation.

[8] = test system: Myzus persicae (Green Peach Aphid); experiment: Example B8: Activity against Myzus persicae, sprayed sunflower leaf discs; type: in vivo; conditions: foliar, 144 h, application rate 200 ppm, aphid population of mixed ages, 6 days after infestation
Protocol: Example B8: Activity Against Myzus persicae (Green Peach Aphid)
Sunflower leaf discs were placed on agar in a 24-well microtiter plate and sprayed with aqueous test solutions prepared from 10′000 ppm DMSO stock solutions. After drying, the leaf discs were infested with an aphid population of mixed ages. The samples were assessed for mortality 6 days after infestation.

[9] = test system: Thrips tabaci (Onion Thrips); experiment: Example B11: Activity against Thrips tabaci, sprayed sunflower leaf discs; type: in vivo; conditions: foliar, 144 h, application rate 200 ppm, thrips population of mixed ages, 6 days after infestation
Protocol: Example B11: Activity Against Thrips tabaci (Onion Thrips)
as §2, with “thrips” for “Frankliniella”, “6” for “7”

[10] = test system: Tetranychus urticae (Two-Spotted Spider Mite); experiment: Example B12: Activity against Tetranychus urticae, sprayed bean leaf discs; type: in vivo; conditions: foliar, 192 h, application rate 200 ppm, mixed population (mobile stages), 8 days after infestation
Protocol: Example B12: Activity Against Tetranychus urticae (Two-Spotted Spider Mite)
as §2, with “Bean” for “Sunflower”, “discs” for “discs were placed”, “were” for “and”, “mite” for “Frankliniella”, “on mixed population (mobile stages) 8” for “7”

Row | Compound | percent control (mortality, anti-feedant effect or growth inhibition) at 200 ppm [1] [%] | percent control (mortality, anti-feedant effect or growth inhibition) at 12.5 ppm [2] [%] | percent effect (mortality or growth inhibition) at 200 ppm [3] [%] | percent effect (mortality or growth inhibition) at 200 ppm [4] [%] | mortality at 200 ppm [5] [%] | mortality at 200 ppm [6] [%] | mortality at 200 ppm [7] [%] | mortality at 200 ppm [8] [%] | mortality at 200 ppm [9] [%] | melting point [°C] | mortality at 200 ppm [10] [%]
1 | CCS(=O)(=O)c1cc(-c2ccc(Cl)cc2)cnc1C(=O)N(C)c1nnc(C(F)(F)F)s1 [Compound P2, 5-(4-chlorophenyl)-3-ethylsulfonyl-N-methyl-N-[5-(trifluoromethyl)-1,3,4-thiadiazol-2-yl]pyridine-2-carboxamide] | ≥ 80 | ≥ 80 | ≥ 80 | ≥ 80 | ≥ 80 | ≥ 80 |  |  |  |  | 
2 | CCS(=O)(=O)c1cc(-c2cc(C(F)(F)F)ccn2)cnc1C(=O)N(C)c1nnc(C(F)(F)F)s1 [Compound P65] | ≥ 80 |  | ≥ 80 | ≥ 80 |  |  | ≥ 80 | ≥ 80 | ≥ 80 |  | 
3 | CCSc1cc(-c2ccc(Cl)cc2)cnc1C(=O)Nc1nnc(C(F)(F)C(F)(F)F)s1 |  |  |  |  |  |  |  |  |  | 184 to 187 | 
4 | CCS(=O)(=O)c1cc(-c2cccc(Cl)c2)cnc1C(=O)N(C)c1nnc(C(F)(F)F)s1 |  |  |  |  |  |  |  |  |  | 213 to 215 | 
5 | CCS(=O)(=O)c1cc(-c2cccc(Cl)n2)cnc1C(=O)N(C)c1nnc(C(F)(F)F)s1 [Compound P49] | ≥ 80 |  | ≥ 80 | ≥ 80 |  |  | ≥ 80 |  |  |  | ≥ 80
6 | CCS(=O)(=O)c1cc(-c2cc(C#N)ccn2)cnc1C(=O)N(C)c1nnc(C(F)(F)F)s1 [Compound P61] | ≥ 80 | ≥ 80 | ≥ 80 | ≥ 80 |  | ≥ 80 | ≥ 80 | ≥ 80 |  |  | ≥ 80
7 | CCS(=O)(=O)c1cc(-c2cc(F)ccc2F)cnc1C(=O)N(C)c1nnc(C(F)(F)F)s1 [Compound P33] | ≥ 80 | ≥ 80 | ≥ 80 | ≥ 80 |  | ≥ 80 | ≥ 80 | ≥ 80 |  |  | ≥ 80
8 | CCS(=O)(=O)c1cc(-c2cc(F)cc(F)c2)cnc1C(=O)N(C)c1nnc(C(F)(F)C(F)(F)F)s1 |  |  |  |  |  |  |  |  |  | 159 to 161 | 
9 | CCS(=O)(=O)c1cc(-c2ccc(Cl)cn2)cnc1C(=O)N(C)c1nnc(C(F)(F)F)s1 [Compound P52] | ≥ 80 | ≥ 80 | ≥ 80 | ≥ 80 | ≥ 80 | ≥ 80 | ≥ 80 | ≥ 80 |  |  | 
10 | CCS(=O)(=O)c1cc(-c2ccc(Cl)c(Cl)c2)cnc1C(=O)N(C)c1nnc(C(F)(F)F)s1 [Compound P36] | ≥ 80 |  | ≥ 80 | ≥ 80 |  |  | ≥ 80 |  |  |  | ≥ 80
11 | CCS(=O)(=O)c1cc(-c2ccc(Cl)cc2)cnc1C(=O)N(C)c1nnc(C(F)(F)C(F)(F)F)s1 [Compound P14] | ≥ 80 | ≥ 80 | ≥ 80 | ≥ 80 |  |  | ≥ 80 | ≥ 80 | ≥ 80 |  | 
12 | CCS(=O)(=O)c1cc(-c2ccc(F)cc2)cnc1C(=O)N(C)c1nnc(C(F)(F)F)s1 [Compound P32] | ≥ 80 | ≥ 80 | ≥ 80 | ≥ 80 | ≥ 80 | ≥ 80 | ≥ 80 | ≥ 80 |  |  | 
13 | CCS(=O)(=O)c1cc(C2(C#N)CC2)cnc1C(=O)N(C)c1nnc(C(F)(F)C(F)(F)F)s1 [Compound P20, 5-(1-cyanocyclopropyl)-3-ethylsulfonyl-N-methyl-N-[5-(1,1,2,2,2-pentafluoroethyl)-1,3,4-thiadiazol-2-yl]pyridine-2-carboxamide] | ≥ 80 | ≥ 80 | ≥ 80 | ≥ 80 | ≥ 80 | ≥ 80 | ≥ 80 | ≥ 80 | ≥ 80 |  | 
14 | CCS(=O)(=O)c1cc(-c2ccc(C(F)(F)F)cc2)ccc1C(=O)N(C)c1nnc(C(F)(F)F)s1 |  |  |  |  |  |  |  |  |  | 174 to 176 | 
15 | CCSc1cc(-c2ccc(C(F)(F)F)cc2)cnc1C(=O)Nc1nnc(C(F)(F)C(F)(F)F)s1 |  |  |  |  |  |  |  |  |  | 254 to 256 | 
16 | CCS(=O)(=O)c1cc(-c2cc(F)cc(F)c2)cnc1C(=O)Nc1nnc(C(F)(F)C(F)(F)F)s1 |  |  |  |  |  |  |  |  |  | 242 to 244 | 
17 | CCS(=O)(=O)c1cc(-c2ccccc2)cnc1C(=O)N(C)c1nnc(C(F)(F)F)s1 [Compound P5, 3-ethylsulfonyl-N-methyl-5-phenyl-N-[5-(trifluoromethyl)-1,3,4-thiadiazol-2-yl]pyridine-2-carboxamide] | ≥ 80 | ≥ 80 | ≥ 80 | ≥ 80 | ≥ 80 |  | ≥ 80 | ≥ 80 | ≥ 80 |  | 
18 | CCS(=O)(=O)c1cc(-c2ccc(C#N)cc2)cnc1C(=O)N(C)c1nnc(C(F)(F)F)s1 [Compound P28] | ≥ 80 | ≥ 80 | ≥ 80 | ≥ 80 |  | ≥ 80 | ≥ 80 | ≥ 80 |  |  | 
